Laboratory results reported in US20050070462A1, “Method for stabilising of nucleic acids” (Intercell AG, priority 2001, published 2005).
Ends that are not written are not given here.

Key:
[1] = system: OVA257-264-specific immune responses; assay: IFN-γ ELISPOT of popliteal lymph node cells 4 days after footpad injection with OVA257-264 (Example 1); format: in vivo, Mice C57Bl/6; conditions: injected with OVA257-264 and co-injection of poly-L-arginine 100 μg/mouse; ODN 5 nmol/mouse; day 4
Experimental: • Mice C57Bl/6 (Harlan/Olac) • Peptide OVA257-264-Peptide (SIINFEKL), a MHC class I (H-2 Kb)-restricted epitope of chicken ovalbumin (Rotzschke et al., 1991), synthesized by standard solid phase F-moc synthesis, HPLC purified and analysed by mass spectroscopy for purity • Dose: 300 μg/mouse • Poly-L-arginine (pR) Poly-L-arginine with an average degree of polymerization of 43 arginine residues; SIGMA chemicals • Dose: 100 μg/mouse • CpG-ODN 1668 thiophosphate substituted ODNs containing CpG-motif: tcc atg acg ttc ctg atg ct, were synthesized by Purimex GmbH, Göttingen. • Dose: 5 nmol/mouse • CpG-ODN 1668 b ODNs containing CpG-motif (not substituted with thiophospate): tcc atg acg ttc ctg atg ct, were synthesized by Purimex GmbH, Göttingen. • Dose: 5 nmol/mouse. Experimental Groups (4 Mice Per Group) • 1. OVA257-264+pR • 2. OVA257-264+CpG-ODN 1668 • 3. OVA257-264+CpG-ODN 1668 b • 4. OVA257-264+CPG-ODN 1668+pR • 5. OVA257-264+CPG-ODN 1668 b+pR. […] This method is a widely used procedure allowing the quantification of antigen-specific T cells. […] Spots representing single IFN-γ producing T cells were counted and the number of background spots was substracted from all samples. The high number of spots detected after the stimulation with Con A (data not shown) indicates a good condition of the used lymphocytes. […]

[2] = system: TRP-2181-188-specific immune responses; assay: IFN-γ ELISPOT of spleen cells at day 6, 49 and 98 after injection with TRP-2181-188 (Example 5); format: in vivo, Mice C57Bl/6; conditions: co-injection of TRP-2181-188, pR and ODN, day 6, day 49, day 98 after single injection, compared to TRP-2181-188 with pR or CpG 1668b
[3] = system: peptide-specific IFN-γ-producing T cells (TRP-2181-188); assay: IFN-γ ELISPOT of PBMCs at day 7 after injection with TRP-2181-188 and KLK (Example 7); format: in vivo, Mice C57Bl/6; conditions: TRP-2181-188 alone or with a single adjuvant
[4] = system: OVA257-264-specific IFN-γ producing T cells; assay: IFN-γ ELISPOT of PBMCs at day 7 after injection with OVA257-264 and KLK (Example 6); format: in vivo, Mice C57Bl/6; conditions: injected with OVA257-264, single adjuvant
serum DNAses = assay: Degradation of DNA-plasmid pSP65 by serum DNAses, agarose gel (Example 8); format: in vitro ADME; conditions: incubated with serum from naïve mice, 1 h at 37° C., presence of poly-L-arginine 2.4 μg
Experimental: To investigate the protective effect of pR in preventing the degradation of DNA by DNAses the following in vitro experiment was performed. To show a possible in vivo relevance serum was used as source of DNases.
The DNA-plasmid pSP65 (1.58 μg/2 μl) was incubated with serum (8 μl) from naïve mice in the presence or absence of poly-L-arginine (2.4 μg/2.4 μl) for 1 h at 37° C. Addition of heparin (1.6 U/1.6 μl) for 20 min at RT was used for the dissociation of DNA/pR-complexes allowing DNA to migrate into the gel. […] As control a 100 bp DNA marker (GIBCO BRL) was used.

[5] = system: TRP-2181-188-specific immune responses; assay: IFN-γ ELISPOT of spleen cells at day 40 after injection with TRP-2181-188 (Example 4); format: in vivo, Mice C57Bl/6; conditions: injected with TRP-2181-188, single adjuvant, compared to TRP-2181-188 alone
[6] = system: TRP-2181-188-specific immune responses; assay: IFN-γ ELISPOT of lymph node cells after footpad injection with TRP-2181-188 (Examples 2 and 3); format: in vivo, Mice C57Bl/6; conditions: injected with TRP-2181-188 and co-injection of poly-L-arginine 100 μg/mouse; ODN 5 nmol/mouse

Substance: CpG-ODN 1668 b: ODNs containing CpG-motif (not substituted with thiophospate): tcc atg acg ttc ctg atg ct (DNA TCCATGACGTTCCTGATGCT; unmodified DNA)
- OVA257-264-specific immune response (IFN-γ-producing cells/1×10^6 lymph node cells) [1]: only upon co-injection of poly-L-arginine a high immune response was induced
- peptide-specific IFN-g producing cells (spleen) ([2]; listed as CpG 1668 b): potent and long lasting immune stimulatory effect
- peptide-specific IFN-g producing cells (spleen) ([2]; listed as CpG 1668b): significantly higher numbers of peptide-specific IFN-g producing cells

Substance: KLKLLLLLKLK—COOH (KLKLLLLLKLK-OH) [synthetic peptide containing KLK-motifs separated by a linker of hydrophobic amino acids]
- peptide-specific IFN-γ-production (PBMCs) [3]: no peptide-specific IFN-γ-production
- peptide-specific IFN-γ-production (PBMCs) [4]: no peptide-specific IFN-γ-production

Substance: Poly-L-arginine [pR]
- degradation of pSP65 DNA by serum DNases (agarose gel band pattern) (serum DNAses): prevented
- TRP-2181-188-specific immune response (IFN-γ-producing spleen cells) [5]: enhances TRP-2181-188-specific immune responses

Substance: TRP-2181-188: VYDFFVWL, a MHC class I (H-2 Kb)-restricted epitope of mouse tyrosinase related protein-2 [reference compound]
- peptide-specific IFN-γ-production (PBMCs) [3]: no peptide-specific IFN-γ-production

Substance: U-ODN 13b: ODNs containing deoxy-Uridine monophosphate (not substituted with thiophospate): tcc atg acu ttc ctg atg ct (DNA TCCATGACUTTCCTGATGCT; DNA, all phosphodiester, T or U not given here; further chemistry not fully specified)
- TRP-2181-188-specific immune response (IFN-γ-producing lymph node cells) [6]: only upon co-injection of poly-L-arginine a strong immune response was induced
